In US20170156324A1 (Dow AgroSciences LLC, priority 2015, published 2017):
Several values for one entry are separate records, joined by “and”; a condition that tells them apart may be missing. Equal values may be shown once.

How the values were obtained:
Assay type in all cases: in vivo
[1] = tested on: Matricaria inodora (scentless mayweed, MATIN); assay: Field trial, post-emergence % visual weed control, MATIN; conditions: 14DAA
Source text: (§1) Except for the trials utilizing the OD formulations, Actirob B was applied at 0.5 or 1.0 liters per hectare (L/ha), or Polyglycol 26-2 was applied at 0.5 to 1.0 L/ha in all respective single and tankmixture treatments being evaluated.
(§2) Trials were established as randomized complete blocks (RCBD) with three to four replicates. Individual treatments were 2-2.5 meters (m) wide and 6-20 m long. An untreated control was included in each trial. All trial sites had naturally occurring populations of weeds.
(§3) Herbicides were applied with backpack or bicycle sprayers using compressed air, nitrogen (N2) or carbon dioxide (CO2) as a propellant. All sprayers delivered a uniform spray pattern that provided thorough coverage of the foliage using a water volume of 150-300 L/ha. All herbicides were applied post-emergence in the spring to early-summer At the time of herbicide applications, winter wheat crops were at the six-leaf to three-tiller stage. Broadleaf and grass weeds were at a similar stage of growth at the time of herbicide application, typically from five leaf to 3 tiller depending on the weed species and time of year.
(§4) The treated plots and control plots were rated blind at various intervals after application. […] The control of the target weeds was visually assessed as percent control, compared to an untreated control plot. The assessments were based on a percent visual reduction in pest plant biomass and/or stand reduction of weed population.
(§5) The efficacy of all treatments was assessed at 13-22 days after application (DAA) for an early season rating, 23-39 DAA for a mid-season rating, and 41-84 DAA for a late-season rating. The data were statistically analyzed using various statistical methods, generally including a Tukey's HSD Factorial Analysis of Variance with a significance level of 5%.
(§6) Colby's equation was used to determine the herbicidal effects expected from the mixtures (Colby, S. R. Calculation of the synergistic and antagonistic response of herbicide combinations. Weeds 1967, 15, 20-22). A t-test (alpha=0.05) between Colby predictions and observed combinations was used to test for significant differences indicating synergy or antagonism using replicate data.
(§7) Expected=A+B+C−(AB+AC+BC)/100+(ABC)/10,000

[2] = tested on: Viola arvensis Murr. (field violet, VIOAR); assay: Field trial, post-emergence % visual weed control, VIOAR
Source text: as §1, §2, §3, §4, §5, §6, §7

[3] = tested on: Lamium purpureum L. (purple deadnettle, LAMPU); assay: Field trial, post-emergence % visual weed control, LAMPU; conditions: 15DAA
Source text: as §1, §2, §3, §4, §5, §6, §7

[4] = tested on: Matricaria recutita L. (wild chamomile, MATCH); assay: Field trial, post-emergence % visual weed control, MATCH
Source text: as §1, §2, §3, §4, §5, §6, §7

[5] = tested on: Stellaria media (L.) Vill. (common chickweed, STEME); assay: Field trial, post-emergence % visual weed control, STEME
Source text: as §1, §2, §3, §4, §5, §6, §7

[6] = tested on: Centaurea cyanus (cornflower, CENCY); assay: Field trial, post-emergence % visual weed control, CENCY
Source text: as §1, §2, §3, §4, §5, §6, §7

[7] = tested on: Galium aparine L. (catchweed bedstraw, GALAP); assay: Field trial, post-emergence % visual weed control, GALAP; conditions: 28DAA
Source text: as §1, §2, §3, §4, §5
(§8) Colby's equation was used to determine the herbicidal effects expected from the mixtures (Colby, S. R. Calculation of the synergistic and antagonistic response of herbicide combinations. Weeds 1967, 15, 20-22). […]

[8] = tested on: Solanum nigrum L. (black nightshade, SOLNI); assay: Field trial, post-emergence % visual weed control, SOLNI
Source text: as §1, §2, §3, §4, §5, §6, §7

[9] = tested on: Consolida regalis S. F. Gray (branching larkspur, CNSRE); assay: Field trial, post-emergence % visual weed control, CNSRE
Source text: as §1, §2, §3, §4, §5, §6, §7

[10] = tested on: Agropyron repens L. (quackgrass, AGRRE); assay: Field trial, post-emergence % visual weed control, AGRRE; conditions: 14DAA
Source text: as §1, §2, §3, §4, §5, §8

[11] = tested on: Alopecurus myosuroides Huds. (blackgrass, ALOMY); assay: Field trial, post-emergence % visual weed control, ALOMY; conditions: 15DAA
Source text: as §1, §2, §3, §4, §5, §8

[12] = tested on: Apera spica-venti (L.) Beauv. (windgrass, APESV); assay: Field trial, post-emergence % visual weed control, APESV
Source text: as §1, §2, §3, §4, §5, §6, §7

[13] = tested on: Echinochloa crus-galli (L.) P. Beauv. (barnyardgrass, ECHCG); assay: Field trial, post-emergence % visual weed control, ECHCG
Source text: as §1, §2, §3, §4, §5, §6, §7

COc1ncc(F)c2nc(S(=O)(=O)Nc3c(F)cccc3F)nn12 [Florasulam, N-(2,6-difluorophenyl)-8-fluoro-5-methoxy[1,2,4]triazolo[1,5-c]pyrimidine-2-sulfonamide]
Mean % Weed Control ([1]; 3 g ai/ha): 30.0%
Mean % Weed Control ([1]; 4 g ai/ha): 35.0%
Mean % Weed Control ([2]; 14DAA, 3 g ai/ha): 0.0%
Mean % Weed Control ([2]; 56DAA, 4 g ai/ha): 20.0%
Mean % Weed Control ([3]; 3.75 g ai/ha): 0.0%
Mean % Weed Control ([4]; 15DAA, 3.75 g ai/ha): 10.0%
Mean % Weed Control ([4]; 61DAA, 3.75 g ai/ha): 85.0% and 67.4%
Mean % Weed Control ([4]; 78DAA, 3.75 g ai/ha): 76.3%
Mean % Weed Control ([5]; 15DAA, 3.75 g ai/ha): 0.0%
Mean % Weed Control ([5]; 61DAA, 3.75 g ai/ha): 68.8% and 56.1%
Mean % Weed Control ([5]; 78DAA, 3.75 g ai/ha): 31.3%
Mean % Weed Control ([6]; 28DAA, 3 g ai/ha): 48.8%
Mean % Weed Control ([6]; 28DAA, 4 g ai/ha): 75.0%
Mean % Weed Control ([6]; 56DAA, 3 g ai/ha): 27.5% and 48.8%
Mean % Weed Control ([6]; 77DAA, 3 g ai/ha): 40.0%
Mean % Weed Control ([6]; 77DAA, 4 g ai/ha): 82.5%
Mean % Weed Control ([6]; 84DAA, 4 g ai/ha): 30.0%
Mean % Weed Control ([7]; 3 g ai/ha): 57.5%
Mean % Weed Control ([8]; 29DAA, 6.25 g ai/ha): 40.0%
Mean % Weed Control ([8]; 56DAA, 6.25 g ai/ha): 20.0%
Mean % Weed Control ([9]; 31DAA, 3 g ai/ha): 75.0%
Mean % Weed Control ([9]; 31DAA, 4 g ai/ha): 75.0%
Mean % Weed Control ([9]; 53DAA, 3 g ai/ha): 78.5%
Mean % Weed Control ([9]; 53DAA, 4 g ai/ha): 79.5%
Mean % Weed Control ([9]; 84DAA, 3 g ai/ha): 79%
Mean % Weed Control ([9]; 84DAA, 4 g ai/ha): 80%
Mean % Weed Control ([10]; 4 g ai/ha): 0.0%
Mean % Weed Control ([11]; 3 g ai/ha): 2.5%
Mean % Weed Control ([12]; 14DAA, 3 g ai/ha): 0.0%
Mean % Weed Control ([12]; 14DAA, 4 g ai/ha): 0.0%
Mean % Weed Control ([12]; 28DAA, 3 g ai/ha): 0.0%
Mean % Weed Control ([12]; 28DAA, 4 g ai/ha): 0.0%
Mean % Weed Control ([12]; 56DAA, 3 g ai/ha): 0.0%
Mean % Weed Control ([12]; 56DAA, 4 g ai/ha): 0.0%
Mean % Weed Control ([13]; 14DAA, 6.25 g ai/ha): 20.0%
Mean % Weed Control ([13]; 29DAA, 6.25 g ai/ha): 10.0%
Mean % Weed Control ([13]; 56DAA, 6.25 g ai/ha): 10.0%

COC(=O)c1nc(-c2ccc(Cl)c(OC)c2F)cc(N)c1Cl [Halauxifen-Methyl, methyl 4-amino-3-chloro-6-(4-chloro-2-fluoro-3-methoxyphenyl)pyridine-2-carboxylate]
Mean % Weed Control ([1]; 3 g ae/ha): 0.0%
Mean % Weed Control ([1]; 4 g ae/ha): 0.0%
Mean % Weed Control ([2]; 14DAA, 3 g ae/ha): 0.0%
Mean % Weed Control ([2]; 14DAA, 4 g ae/ha): 0.0%
Mean % Weed Control ([2]; 56DAA, 3 g ae/ha): 0.0%
Mean % Weed Control ([3]; 4.8 g ae/ha): 72.5%
Mean % Weed Control ([3]; 6 g ae/ha): 55.0%
Mean % Weed Control ([4]; 15DAA, 4.8 g ae/ha): 0.0%
Mean % Weed Control ([4]; 61DAA, 4.8 g ae/ha): 0.0%
Mean % Weed Control ([4]; 61DAA, 6 g ae/ha): 1.3% and 3.2%
Mean % Weed Control ([4]; 78DAA, 4.8 g ae/ha): 6.3%
Mean % Weed Control ([4]; 78DAA, 6 g ae/ha): 6.3%
Mean % Weed Control ([5]; 15DAA, 4.8 g ae/ha): 0.0%
Mean % Weed Control ([5]; 15DAA, 6 g ae/ha): 0.0%
Mean % Weed Control ([5]; 61DAA, 4.8 g ae/ha): 0.0%
Mean % Weed Control ([5]; 61DAA, 6 g ae/ha): 1.3% and 3.2%
Mean % Weed Control ([5]; 78DAA, 4.8 g ae/ha): 6.3%
Mean % Weed Control ([5]; 78DAA, 6 g ae/ha): 8.8%
Mean % Weed Control ([6]; 28DAA, 3 g ae/ha): 75.0%
Mean % Weed Control ([6]; 77DAA, 3 g ae/ha): 82.5%
Mean % Weed Control ([6]; 84DAA, 3 g ae/ha): 1.3%
Mean % Weed Control ([6]; 84DAA, 4 g ae/ha): 27.5%
Mean % Weed Control ([7]; 3 g ae/ha): 0.0%
Mean % Weed Control ([8]; 29DAA, 3 g ae/ha): 10.0%
Mean % Weed Control ([8]; 56DAA, 3 g ae/ha): 0.0%
Mean % Weed Control ([9]; 31DAA, 3 g ae/ha): 68.3%
Mean % Weed Control ([9]; 31DAA, 4 g ae/ha): 70.8%
Mean % Weed Control ([9]; 53DAA, 3 g ae/ha): 70.0%
Mean % Weed Control ([9]; 53DAA, 4 g ae/ha): 72.0%
Mean % Weed Control ([9]; 84DAA, 3 g ae/ha): 70.0%
Mean % Weed Control ([9]; 84DAA, 4 g ae/ha): 72.5%
Mean % Weed Control ([10]; 3 g ae/ha): 0.0%
Mean % Weed Control ([11]; 4 g ae/ha): 0.0%
Mean % Weed Control ([12]; 14DAA, 3 g ae/ha): 0.0%
Mean % Weed Control ([12]; 14DAA, 4 g ae/ha): 0.0%
Mean % Weed Control ([12]; 28DAA, 3 g ae/ha): 0.0%
Mean % Weed Control ([12]; 28DAA, 4 g ae/ha): 0.0%
Mean % Weed Control ([12]; 56DAA, 3 g ae/ha): 0.0%
Mean % Weed Control ([13]; 14DAA, 3 g ae/ha): 0.0%
Mean % Weed Control ([13]; 29DAA, 3 g ae/ha): 0.0%
Mean % Weed Control ([13]; 56DAA, 3 g ae/ha): 0.0%
